Assay results taken from ChEMBL document CHEMBL1201862, “PubChem BioAssay data set” (2004).
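Assay format: 96-well plates, 48-hour exposure. GI50 = concentration required for 50% inhibition of growth.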 Activity calls are given as the source filed them. No stated cut-off is given here; in the data, active = GI50 up to about 1.1 µM and inactive = higher.

How the values were obtained:
Assay in all cases: NCI anticancer screen, dose series, 48 h
A498 = test system: A498
ACHN = test system: ACHN
HCT-15 = test system: HCT-15
HL-60 = test system: HL-60
HOP-62 = test system: HOP-62
M14 = test system: M14
MCF7 = test system: MCF7
MDA-MB-231 = test system: MDA-MB-231
MDA-MB-435 = test system: MDA-MB-435
NCI-H226 = test system: NCI-H226
OVCAR-3 = test system: OVCAR-3
OVCAR-5 = test system: OVCAR-5
OVCAR-8 = test system: OVCAR-8
SF-295 = test system: SF-295
SK-MEL-5 = test system: SK-MEL-5
SN12C = test system: SN12C
SNB-19 = test system: SNB-19
SNB-75 = test system: SNB-75
HCC 2998 = test system: HCC 2998
Malme-3M = test system: Malme-3M

Row | SMILES | GI50 (A498) | GI50 (ACHN) | GI50 (HCT-15) | GI50 (HL-60) | GI50 (HOP-62) | GI50 (M14) | GI50 (MCF7) | GI50 (MDA-MB-231) | GI50 (MDA-MB-435) | GI50 (NCI-H226) | GI50 (OVCAR-3) | GI50 (OVCAR-5) | GI50 (OVCAR-8) | GI50 (SF-295) | GI50 (SK-MEL-5) | GI50 (SN12C) | GI50 (SNB-19) | GI50 (SNB-75) | GI50 (HCC 2998) | GI50 (Malme-3M)
1 | COc1ccccc1C1(c2c(OC(C)C)c(=O)c2=O)SCCCS1 | > 100 µM (inactive) | > 100 µM (inactive) | > 100 µM | > 100 µM (inactive) | > 100 µM (inactive) | > 100 µM (inactive) | > 100 µM (inactive) | > 100 µM (inactive) | > 100 µM (inactive) | > 100 µM (inactive) | > 100 µM (inactive) | > 100 µM (inactive) | > 100 µM (inactive) | > 100 µM (inactive) | > 100 µM (inactive) | > 100 µM (inactive) | > 100 µM (inactive) | 90.4 µM (inactive) | – | –
2 | COc1cc(/C=C2\N=C(c3ccccc3)N(c3nc4ccc(Sc5ccccc5)cc4[nH]3)C2=O)cc(OC)c1OC | 22 µM (inactive) | 22.9 µM (inactive) | 21.1 µM | 14.7 µM (inactive) | 31.5 µM (inactive) | 19.3 µM (inactive) | 17.8 µM (inactive) | 20.6 µM (inactive) | 5.19 µM (inactive) | – | 22.6 µM (inactive) | 33.7 µM (inactive) | 32.7 µM (inactive) | 23.6 µM (inactive) | 13.2 µM (inactive) | 27.9 µM (inactive) | 33.6 µM (inactive) | 17.4 µM (inactive) | 16.5 µM (inactive) | 16.9 µM (inactive)
3 | CC1(O)CC(C(F)(F)F)(C(F)(F)F)OC1=O (stereo not drawn) | > 10 µM (inactive) | > 10 µM (inactive) | > 10 µM | – | > 10 µM (inactive) | > 10 µM (inactive) | > 10 µM (inactive) | > 10 µM (inactive) | > 10 µM (inactive) | > 10 µM (inactive) | > 10 µM (inactive) | > 10 µM (inactive) | > 10 µM (inactive) | > 10 µM (inactive) | > 10 µM (inactive) | > 10 µM (inactive) | > 10 µM (inactive) | – | > 10 µM (inactive) | > 10 µM (inactive)
4 | Clc1ccc(-c2ccc(-c3nnc(COc4ccc(OCc5nnc(-c6ccc(-c7ccc(Cl)cc7Cl)o6)o5)c(Cl)c4)o3)o2)c(Cl)c1 | > 100 µM (inactive) | > 100 µM (inactive) | > 100 µM | > 100 µM (inactive) | 36.6 µM (inactive) | > 100 µM (inactive) | > 100 µM (inactive) | > 100 µM (inactive) | > 100 µM (inactive) | > 100 µM (inactive) | > 100 µM (inactive) | > 100 µM (inactive) | 45.7 µM (inactive) | > 100 µM (inactive) | > 100 µM (inactive) | > 100 µM (inactive) | 61.7 µM (inactive) | – | > 100 µM (inactive) | –
5 | N[C@@H]1CCN(c2c(F)cc3c(=O)c(C(=O)O)cn4c3c2Oc2cc3c(ccc5ccccc53)cc2-4)C1 | 4.83 µM (inactive) | 1.54 µM (inactive) | 1.69 µM | 7.14 µM (inactive) | 4.82 µM (inactive) | 8.79 µM (inactive) | 3.13 µM (inactive) | 4.56 µM (inactive) | 3.24 µM (inactive) | 6.58 µM (inactive) | 5.73 µM (inactive) | 13.9 µM (inactive) | 1.7 µM (inactive) | 3.68 µM (inactive) | 2.92 µM (inactive) | 2.08 µM (inactive) | 3.3 µM (inactive) | 2.89 µM (inactive) | – | 5.27 µM (inactive)
6 | C#CCCCCC#Cc1ccccc1C(=O)C=[N+]=[N-] | > 100 µM (inactive) | > 100 µM (inactive) | > 100 µM | – | > 100 µM (inactive) | > 100 µM (inactive) | > 100 µM (inactive) | > 100 µM (inactive) | > 100 µM (inactive) | > 100 µM (inactive) | – | > 100 µM (inactive) | > 100 µM (inactive) | > 100 µM (inactive) | > 100 µM (inactive) | > 100 µM (inactive) | > 100 µM (inactive) | 95.1 µM (inactive) | > 100 µM (inactive) | –
7 | COC(=O)C(/C(=N/NC(=O)c1ccncc1)C(=O)Nc1ccccc1OC)c1nc2ccc(Cl)cc2nc1O (stereo not drawn) | > 100 µM (inactive) | > 100 µM (inactive) | 63.5 µM | > 100 µM (inactive) | > 100 µM (inactive) | > 100 µM (inactive) | > 100 µM (inactive) | > 100 µM (inactive) | 44.3 µM (inactive) | 22.2 µM (inactive) | > 100 µM (inactive) | > 100 µM (inactive) | > 100 µM (inactive) | > 100 µM (inactive) | > 100 µM (inactive) | > 100 µM (inactive) | – | > 100 µM (inactive) | – | > 100 µM (inactive)
8 | Nc1nc(-[n+]2ccc(-c3ccncc3)cc2)nc(Cl)c1Cl | > 100 µM (inactive) | > 100 µM (inactive) | 49.4 µM | 18.6 µM (inactive) | 43 µM (inactive) | > 100 µM (inactive) | 4.6 µM (inactive) | 35.4 µM (inactive) | > 100 µM (inactive) | > 100 µM (inactive) | 17.3 µM (inactive) | > 100 µM (inactive) | – | – | > 100 µM (inactive) | 20.3 µM (inactive) | 27 µM (inactive) | – | > 100 µM (inactive) | 34.9 µM (inactive)
9 | CC1=CCC(=O)[C@]2(C)C(CC(=O)O)[C@]3(C)C4=C(C)C(c5ccoc5)C[C@@H]4O[C@@H]3[C@H](O)[C@@H]12 (stereo partly drawn) | > 100 µM (inactive) | > 100 µM (inactive) | > 100 µM | > 100 µM (inactive) | – | > 100 µM (inactive) | > 100 µM (inactive) | > 100 µM (inactive) | > 100 µM (inactive) | – | > 100 µM (inactive) | > 100 µM (inactive) | > 100 µM (inactive) | > 100 µM (inactive) | > 100 µM (inactive) | > 100 µM (inactive) | > 100 µM (inactive) | > 100 µM (inactive) | > 100 µM (inactive) | > 100 µM (inactive)
10 | COC(=O)C(CC(C)C)NC(=O)C(NC(=O)c1ccc(-c2ccc(Cl)cc2Cl)o1)C(C)C (stereo not drawn) | – | 20.8 µM (inactive) | 20.7 µM | 6.56 µM (inactive) | 21.4 µM (inactive) | 24 µM (inactive) | 16.5 µM (inactive) | 13.8 µM (inactive) | 22.1 µM (inactive) | 32.4 µM (inactive) | 16.3 µM (inactive) | 22.2 µM (inactive) | 28.2 µM (inactive) | 16.2 µM (inactive) | 20.3 µM (inactive) | 18 µM (inactive) | 30.5 µM (inactive) | 23.9 µM (inactive) | 17.3 µM (inactive) | –
11 | COc1ccc(OC)c(NCC(=O)Nn2cnc3ccc(S(=O)(=O)Nc4cc(OC)ccc4OC)cc3c2=O)c1 | – | > 100 µM (inactive) | > 100 µM | 16.2 µM (inactive) | > 100 µM (inactive) | > 100 µM (inactive) | > 100 µM (inactive) | > 100 µM (inactive) | 29.5 µM (inactive) | > 100 µM (inactive) | > 100 µM (inactive) | > 100 µM (inactive) | > 100 µM (inactive) | 70.3 µM (inactive) | – | > 100 µM (inactive) | > 100 µM (inactive) | > 100 µM (inactive) | 37.2 µM (inactive) | > 100 µM (inactive)
